Key:
Bax = Bax expression in LOX-D RPE cells under oxidative stress; assay type: cell-based, human
Experimental: (§1) FIG. 8. (A) Bcl-xL-upregulation by elovanoids ELV1 and ELV2 in ARPE-19 cells under stress. Bcl-xL is the antiapoptotic Bcl2 family protein. Like proapoptotic proteins Bid and Bim, the effect of elovaniod precursors on the antiapoptotic protein Bcl-xL was tested in this figure in RPE cells under OS. […] (B) Effect of NPD1, ELV1 and ELV2 on Bax expression in LOX-D cells under stress. Proapoptotic Bax was tested in this figure. […] C) VLC-PUFA and elovanoids ELV1 and ELV2 mediated effect on Bax upregulation in ARPE-19 cells under stress. In this experiment, elovanoid precursors along with VLC-PUFA were tested on the downregulation of the Bax protein in RPE cells under stress.
as §1, with “8—(A)” for “8. (A)”

[1] = system: neuronal cells in primary cultures; test: NMDA-induced toxicity in neuronal cells in primary culture, MTT assay for cell viability; assay type: cell-based
Text: FIG. 11. […] In several neurological and neurodegenerative diseases, such as stroke, epilepsy, status epilepticus, traumatic head injury, etc., as well as ophthalmological diseases, such as glaucoma, an excessive presynaptic release of the excitatory neurotransmitter glutamate takes place. As a consequence, glutamate transporters that function to remove extracellular glutamate from astrocytes and neurons are overwhelmed and the NMDA-type glutamate receptor is over-activated. This receptor is a calcium channel that therefore leads to a flooding of calcium into the postsynaptic cell. The overall phenomena is refer to as excitotoxicity that in turn leads to neuronal damage and cell death. MK801 is a known blocker of this receptor used here as a control.
In several neurological and neurodegenerative diseases, such as stroke, epilepsy, status epilepticus, traumatic head injury, etc., as well as ophthalmological diseases, such as glaucoma, an excessive presynaptic release of the excitatory neurotransmitter glutamate takes place. As a consequence, glutamate transporters that function to remove extracellular glutamate from astrocytes and neurons are overwhelmed and the NMDA-type glutamate receptor is over-activated. This receptor is a calcium channel that therefore leads to a flooding of calcium into the postsynaptic cell. The overall phenomena is refer to as excitotoxicity that in turn leads to neuronal damage and cell death. MK801 is a known blocker of this receptor used here as a control.

Bcl-xL = Bcl-xL protein in ARPE-19 cells under oxidative stress; assay type: cell-based, human; conditions: ARPE-19 cells under OS
Experimental: as §1
as §1, with “8—(A)” for “8. (A)”

Bid = Bid protein by western blot in ARPE-19 cells under oxidative stress; assay type: cell-based, human
Text: FIG. 6. (A) VLC-PUFA and elovanoids ELV1 and ELV2 mediated effect on Bid upregulation in ARPE-19 cells under stress. […] (B) VLC-PUFA and ELV1 and ELV2 compounds mediated upregulation of Bid in ARPE-19 cells under stress.
FIG. 6—(A) VLC-PUFA and elovanoids ELV1 and ELV2 mediated effect on Bid upregulation in ARPE-19 cells under stress. […] (B) VLC-PUFA and ELV1 and ELV2 compounds mediated upregulation of Bid in ARPE-19 cells under stress.

ARPE-19 cells = test: Oxidative stress induced apoptosis / cell death in ARPE-19 cells; assay type: cell-based, human; conditions: for concentration dependent cytoprotection (FIG. 5C): ARPE-19 under OS
Experimental: FIG. 5. (A) Effect of PD146176 on VLC-PUFA-inhibited apoptosis induced by OS in ARPE-19 cells. […] It is evident that 32:6 and 34:6 LCAF were able to induce a substantial amount (55 and 48% respectively) of neuroprotection compared to PD 146176 (22%) when the stressed cells were treated with 5 μm of 15-LOX-D1 inhibitor. It can be concluded that since PD146176 is the inhibitor of 15-lipooxygenase enzyme, it might be protecting the stressed RPE cells by accumulating neuroprotective agents inside the cells. (B) Comparison of cytoprotective capacities of NPD1, C32:6 and C34:6 VLC-PUFA on oxidative stress-induced apoptosis in 15-LOX-1 cells. Shown here is the comparison of neuroprotection in a 15-LOX-1-deficient cell line under oxidative stress with 32:6 and 34:6 VLC-PUFA along with NPD1. 32:6 and 34:6 LCAF were able to induce neuroprotection (45% and 40% respectively), as compared to oxidative stress (90%) under this condition. (C) Concentration dependent cytoprotection by C32:6 and C34:6 VLC-PUFA in oxidative-stress induced ARPE-19 cells. A concentration (50-500 nM) kinetic of cytoprotection induced by LCAF 32:6 and 34:6 in RPE cell culture under OS was shown here. […] We decided to use 250 nM concentrations of 32:6 and 34:6 LCAF in subsequent experiments. (D) Selected images of alive and dead cells from this study (control, OS, treatment with C32:6).
FIG. 5—(A) Effect of PD146176 on VLC-PUFA inhibited apoptosis induced by OS in ARPE-19 cells. […] It is evident that 32:6 and 34:6 LCAF were able to induce a substantial amount (55 and 48% respectively) of neuroprotection compared to PD 146176 (22%) when the stressed cells were treated with 5 μm of 15-LOX-D1 inhibitor. It can be concluded that since PD146176 is the inhibitor of 15-lipooxygenase enzyme, it might be protecting the stressed RPE cells by accumulating neuroprotective agents inside the cells. (B) Comparison of cytoprotective capacities of NPD1, C32:6 and C34:6 VLC-PUFA on oxidative stress-induced apoptosis in 15-LOX-1 cells. Shown here is the comparison of neuroprotection in a 15-LOX-1-deficient cell line under oxidative stress with 32:6 and 34:6 VLC-PUFA along with NPD1. 32:6 and 34:6 VLC-PUFA were able to induce neuroprotection (45% and 40% respectively), as compared to oxidative stress (90%) under this condition. (C) Concentration dependent cytoprotection by C32:6 and C34:6 VLC-PUFA in oxidative-stress induced ARPE-19 cells. A concentration (50-500 nM) kinetic of cytoprotection induced by VLC-PUFA 32:6 and 34:6 in RPE cell culture under OS was shown here. […] We decided to use 250 nM concentrations of 32:6 and 34:6 VLC-PUFA in subsequent experiments. (D) Selected images of alive and dead cells from this study (control, OS, treatment with C32:6).

Structure (SMILES) | effect on Bax upregulation by OS (FIG. 8B) (Bax) | protection of neuronal cells from NMDA-induced toxicity (FIG. 11A) ([1]; 200 nM) | cell death and cell viability with NMDA in increasing concentrations (FIG. 11) ([1]; neuronal cultures, MTT) | effect on antiapoptotic Bcl-xL protein (FIG. 8A) (Bcl-xL) | effect on Bid protein upregulated by OS (FIG. 6) (Bid) | concentration dependent cytoprotection (FIG. 5C) (ARPE-19 cells; 250 nM) | concentration dependent cytoprotection (FIG. 5C) (ARPE-19 cells; 500 nM) | protection against OS in RPE cells (summary, FIGS. 4-10) (ARPE-19 cells; RPE cells) | concentration dependent cytoprotection (FIG. 5C) (ARPE-19 cells; starting from 50 nM) | neuroprotection (FIG. 5A) (ARPE-19 cells; stressed ARPE-19 cells treated with 5 μm of 15-LOX-D1 inhibitor PD146176) [%]
CC/C=C\C[C@H](O)\C=C/C=C/C=C/[C@H](O)C/C=C\C/C=C\CCCCCCCCCCCCCCC(=O)O [ELV2, (16Z,19Z,22R,23E,25E,27Z,29S,31Z)-22,29-dihydroxytetratriaconta-16,19,23,25,27,31-hexaenoic acid] | potent downregulation | potently protects neuronal cells | reduces cell death and increases cell viability | potent upregulation | potent downregulation |  |  |  |  | 
CC/C=C\C/C=C\C/C=C\C/C=C\C/C=C\C/C=C\CCCCCCCCCCCCCCC(=O)O [C34:6] |  |  |  |  |  | very good intermediate effect | maximum effect | protective against OS | gradual decrease of cell deaths | 48

From patent publication US12565467B2, “Compounds, compositions, and methods for the treatment of inflammatory, degenerative, and neurodegenerative diseases” (Board of Supervisors of Louisiana State University and …, priority 2015, dated 2026)
